Here are results for 4 molecules from US10947182B1, “Cinnamyl alcohol cassic acid ester with antibacterial activity and a method of preparing the same” (SHAANXI UNIVERSITY OF SCIENCE AND TECHNOLOGY, priority 2020, dated 2021).

Molecules are shown by their SMILES.

Experiment [1] deals with Staphylococcus aureus (SAU). The experiment is described as follows: paper diffusion method drug sensitivity test. The settings on record: 30 μg/tablet paper disc (6.35 mm), LB plate, 37° C., 24 h. Format: cell-based. As for the experimental part:
(§1) The antimicrobial efficacy was determined by a paper diffusion method drug sensitivity test.
(§2) Experimental strains: Staphylococcus aureus (SAU), multi-resistant Staphylococcus aureus 18-206. The experimental strain was identified by Huashan Hospital Affiliated to Fudan University (Institute of Antibiotic of Fudan University).
(§3) Drug sensitive paper: The drug sensitive paper is a special drug sensitive paper with a diameter of 6.35 mm and a water absorption of 0.02 mL. The control drug was cefazolin (30 μg/tablet); the test drugs were cassic acid (30 μg/tablet), cinnamyl alcohol (30 μg/tablet) and cinnamyl alcohol cassic acid ester (30 μg/tablet).
(§4) Reagents: LB agar medium, LA broth medium, 0.5% DMSO solution.
(§5) The experimental strains were inoculated in non-selective medium and placed in air at 37° C. for 24 h. Pick a single colony that grows well and inoculate it into broth medium, incubate at 35° C.±2° C. for 6 hours, and use LA broth medium to calibrate the concentration of the bacterial solution to 0.5 Mie turbidimetric tube (1.5×10^8 CFU/mL). A bacterial suspension is obtained.
(§6) Weigh the LB dry powder, sterilize at 103.4 Kpa, 121.3° C. high-pressure steam for 15 min, and then put it in a 40° C.-50° C. water bath. Place a sterile empty plate (inner diameter 9 cm) on the surface of the ultra-clean table water table, shake and shake LB, and then pour the plate. The thickness of each plate is 3 mm to 4 mm. After the plate is cooled at room temperature, store it in the refrigerator at 2° C.-8° C. Use a sterile cotton swab to dip the bacterial solution, and evenly coat the surface of the LB plate 3 times. After inoculation of the bacterial suspension, the LB plate was dried at room temperature for 3 min to 5 min. Use sterile forceps to closely attach the antibacterial drug paper to the dish. Put the dish upside down and place it in a 37° C. incubator for 24 h. Observe the result and measure the diameter. Taking 0.5% DMSO solution as a negative control, the antibacterial activity is expressed by the diameter of the inhibition zone. The inhibition zone ≥17 mm, sensitive; the inhibition zone is 15 mm-16 mm, intermediary; the inhibition zone ≤14 mm, drug resistance.

The test system of experiment [2] is multi-resistant Staphylococcus aureus 18-206. The experiment is described as follows: paper diffusion method drug sensitivity test. The format is cell-based. The settings on record: for Zone of inhibition: Multi-resistant Staphylococcus aureus 18-206, 30 μg/tablet paper disc (6.35 mm), LB plate, 37° C., 24 h; for inhibitory effect on drug-resistant bacteria (in words): multi-resistant Staphylococcus aureus 18-206, summary of Table 1. On the procedure: as §1, §2, §3, §4, §5, §6

Regarding `O=C(O)c1cc(O)c2c(c1)C(=O)c1cccc(O)c1C2=O` [Cassic acid], the Zone of inhibition in experiment [1] and in experiment [2] was 7 mm each time.
With `Cc1nnc(SCC2=C(C(=O)O)N3C(=O)[C@@H](NC(=O)Cn4cnnn4)[C@H]3SC2)s1` [Cefazolin], the Zone of inhibition worked out at 34 mm in experiment [1] and 22 mm in experiment [2].
Consider `O=C(OC/C=C/c1ccccc1)c1cc(O)c2c(c1)C(=O)c1cccc(O)c1C2=O` [Cinnamyl alcohol cassic acid ester, Cinnamyl 4,5-dihydroxy-9,10-dioxo-9,10-dihydroanthracene-2-carboxylate], for which the Zone of inhibition in experiment [1] was found to be 13 mm; in experiment [2], 15 mm. For the same molecule, the “inhibitory effect on drug-resistant bacteria (in words)” value in experiment [2] is listed as “strong suppression effect”.
In experiment [1], `OCC=Cc1ccccc1` [Cinnamyl alcohol] registered a Zone of inhibition of 17 mm. In experiment [2], the Zone of inhibition is listed as 0 mm and the “inhibitory effect on drug-resistant bacteria (in words)” value is reported as “no inhibitory effect”.
